Tested on: G3-OTAapt1-FAM (F1) (DNA, aptamer) GGGGATCGGGTGTGGGTGGCGTAAAGGGAGCATC
Assay: fluorescence quenching (FAM, guanine PIET)
Settings: Na+ 120 mM, Ca2+ 3 mM; 10 mM Tris-HCl pH 8.4, room temperature; 20 nM F1; calibration curve only

C[C@@H]1Cc2c(Cl)cc(C(=O)N[C@@H](Cc3ccccc3)C(=O)O)c(O)c2C(=O)O1
binding: yes

From paper PMC9138568 (2022)
